“And” between values parts separate entries of the source, which are not always exact repeats. Equal values may be shown once.

The nature of the data set: photoluminescence quantum yield (fraction); solvent given as SMILES.

`CCOC(=O)c1cc(C(=O)O)nc2cc(OC)ccc12` returned a photoluminescence quantum yield (in CCO) of 0.15.

Take `C(=C\c1c2ccccc2cc2ccccc12)/c1cnc2ccccc2c1`: the photoluminescence quantum yield by setting is: (in CC1CCCCC1) 0.7; (in CC#N) 0.58.

Consider `CCN(CC)c1ccc(/C=N/C2CCCCC2/N=C/c2ccc(N(CC)CC)cc2O)c(O)c1` (configuration not stated), for which the photoluminescence quantum yield (in CC#N) is 0.068.

Take `CCN(CC)c1ccc(C2=C3C(C)=CC(/C=C/c4ccc(OCCCN=[N+]=[N-])cc4)=[N+]3[B-](F)(F)n3c(C)cc(C)c32)cc1`: the photoluminescence quantum yield (in CO) was determined as 0.82.

In turn, `CC[N+](CC)=c1ccc2c(-c3ccccc3C(=O)O)c3cc4c(-c5ccccc5C(=O)O)c5ccc(=[N+](CC)CC)cc-5oc4cc3oc-2c1` gave a photoluminescence quantum yield (in ClC(Cl)Cl) of 0.17.

As to `CC1=CC(C)=[N+]2C1=C(c1ccccc1)c1c(C)cc(/C=C/c3ccc(N(C)C)cc3)n1[B-]2(F)F`, where the note is “in CCOCC”, the photoluminescence quantum yield was 0.83.

Compound `N#Cc1cccc(N2c3ccccc3C(c3ccccc3)(c3ccccc3)c3ccccc32)c1` gave a photoluminescence quantum yield (in Cc1ccccc1) of 0.1.

The compound `c1ccc(C2=C(c3ccccc3)c3cccc4c3c(cc3nc5cc(-c6ccccc6)c(-c6ccccc6)cc5nc34)O2)cc1` displayed a photoluminescence quantum yield (in ClCCl) of 0.86.

Consider `CCC1=C(C)C2=C(c3c4ccccc4c(-c4ccccc4)c4ccccc34)c3c(C)c(CC)c(C)n3[B-](F)(F)[N+]2=C1C`, for which the photoluminescence quantum yield worked out at 0.422 (in CC#N); 0.903 (in CCCCCC); 0.804 (in CCO); 0.648 (in CN(C)C=O); 0.858 (in Cc1ccccc1); 0.833 (in ClCCl).

As for `N#Cc1nn(-c2ccc(F)cc2)nc1N1CCCC1`, the photoluminescence quantum yield (in CC#N) came to 0.683.

Consider `C1=C(c2ccccc2)B(c2ccccc2)Nc2c1ccc1ccccc21`, for which, where the note is “in C1CCCCC1”, the photoluminescence quantum yield came to 0.51.

Take `COc1ccc(C2=[N+]3C(=C(c4ccc(I)cc4)c4ccc(-c5ccc(OC)cc5)n4[B-]3(F)F)C=C2)cc1`: the photoluminescence quantum yield (in ClC(Cl)Cl) came to 0.42.

For the compound `Clc1ncc(-c2c3ccccc3c(-c3cnc(Cl)nc3)c3ccccc23)cn1`, the photoluminescence quantum yield (in CCO) came to 0.22 and the photoluminescence quantum yield (in ClCCl) was 0.78.

In the case of `CCCCCCN1C(=O)c2cccc3c(-c4scc5c4OCCO5)ccc(c23)C1=O`, the photoluminescence quantum yield (in ClC(Cl)Cl) is 0.61.

On to `CCCCN(CCCC)c1ccc(/C=C/c2ccc3nc(/C=C/c4nc5ccc(/C=C/c6ccc(N(CCCC)CCCC)cc6)cc5n(CCC)c4=O)c(=O)n(CCC)c3c2)cc1`, for which the photoluminescence quantum yield reads like this: (in C1COCCO1) 0.18; (in ClCCl) 0.01.

On to `COc1ccc2cc(/C=C/C3=[O+][B-](F)(F)OC(/C=C/c4ccc5cc(OC)ccc5c4)=C3c3ccccc3)ccc2c1`, for which the photoluminescence quantum yield (in ClCCl) is 0.51.

`CCc1ccc(-c2ccc(-c3nnc(-c4ccc(-c5nnc(-c6ccc(-c7ccc(CC)cc7)s6)o5)cc4)o3)s2)cc1` came in with a photoluminescence quantum yield (in ClC(Cl)Cl) of 0.6.

Take `O=CN1N=C(c2ccc(Br)cc2)C[C@@H]1c1ccccc1`: the photoluminescence quantum yield is, setting by setting: (in C1CCCCC1) 0.25; (in C1COCCO1) 0.25; (in CC#N) 0.14; (in CCO) 0.13; (in CCOC(C)=O) 0.18; (in CO) 0.05. Besides, the photoluminescence quantum yield (in CS(C)=O) stood at 0.11, the photoluminescence quantum yield (in Cc1ccccc1) came out at 0.01 and the photoluminescence quantum yield (in ClC(Cl)(Cl)Cl) came to 0.02.

In the case of `Clc1ccc2cc3cccc[n+]3cc2c1`, the photoluminescence quantum yield (in O) is 0.2.

Under “in ClCCl”, `CN(C)c1ccc(/C=C/c2cnc(/C=C/c3ccc(C#N)cc3)o2)cc1` returned a photoluminescence quantum yield of 0.5.

For `O=S1(=O)c2ccccc2-c2cc(-c3c4ccccc4cc4ccccc34)ccc21`, the photoluminescence quantum yield came out at 0.36 (in C1CCCCC1), 0.14 (in CC#N) and 0.24 (in ClCCl).

For the compound `Cc1cc(-c2ccc(-c3n(C)c4ccccc4[n+]3C)cc2)ccc1-c1ccc(-c2n(C)c3ccccc3[n+]2C)cc1`, the photoluminescence quantum yield (in O) was 0.65.

Where the note is “in O=P(c1ccccc1)(c1ccccc1)c1ccccc1Oc1ccccc1P(=O)(c1ccccc1)c1ccccc1”, `c1ccc2c(c1)c1ccccc1n2-c1ccc2c(c1)c1ccccc1n2-c1cc2c3ccccc3n3c4ccccc4c(c1)c23` had a photoluminescence quantum yield of 0.53.

`CC(C)(C)c1ccc2c3c(c4ccc(C(C)(C)C)cc4c2c1)=[N+]1C(=C(c2ccccc2)c2c(Br)c4c5ccc(C(C)(C)C)cc5c5cc(C(C)(C)C)ccc5c4n2[B-]1(F)F)C=3Br` showed a photoluminescence quantum yield (in C1CCCCC1) of 0.03; a photoluminescence quantum yield (in C1CCOC1) of 0.02; a photoluminescence quantum yield (in CC#N) of 0.02; a photoluminescence quantum yield (in Cc1ccccc1) of 0.03; a photoluminescence quantum yield (in ClCCl) of 0.03.

For `CCCCCCc1cc2c(s1)-c1cc3c(cc1NB2c1ccccc1)-c1sc(CCCCCC)cc1B(c1ccccc1)N3`, the photoluminescence quantum yield (in ClCCl) stood at 0.2.

For `CC1=[N+]2C(=C(c3ccc(N4CCCCC4)cc3)c3ccc(C)n3[B-]2(F)F)C=C1`, the photoluminescence quantum yield was 0.33 (in C1CCCCC1); 0.01 and 0.008 (in C1CCOC1); 0.003 and 0.002 (in CC#N); 0.004 (in CC(=O)C(C)(C)C); 0.002 (in CC(C)=O); 0.341 (in CCCCCC). The photoluminescence quantum yield was 0.006 and 0.005 (in CCOC(C)=O); 0.005 and 0.003 (in CO); 0.13 (in Cc1ccccc1); 0.077 (in ClC(Cl)Cl).

In the case of `Fc1c(-n2c3ccccc3c3ccccc32)c(-c2nnc(-c3ccccc3)o2)c(-n2c3ccccc3c3ccccc32)c(-n2c3ccccc3c3ccccc32)c1-n1c2ccccc2c2ccccc21`, the photoluminescence quantum yield (in Cc1ccccc1) amounted to 0.1.

Turning to `O=C([O-])c1ccc(C(=O)[O-])c2cc3ccccc3cc12`, for the setting “in CN(C)C=O”, the photoluminescence quantum yield is 0.066.

As to `COc1ccc2c3c(c4ccc(OC)cc4c2c1)=[N+]1C(=C(c2c(C)cc(C)cc2C)c2cc4c5ccc(OC)cc5c5cc(OC)ccc5c4n2[B-]1(F)F)C=3`, the photoluminescence quantum yield is, setting by setting: (in C1CCCCC1) 0.63; (in C1CCOC1) 0.5; (in CC#N) 0.33; (in Cc1ccccc1) 0.54; (in ClCCl) 0.53.

Where the note is “in ClC(Cl)Cl”, `CCOC(=O)/C(C)=C/C1=C(c2ccc(C)cc2)C2=Nc3c(-c4ccc(C)cc4)c(Br)c(-c4ccc(C)cc4)n3[B-](F)(F)[N+]2=C1c1ccc(C)cc1` displayed a photoluminescence quantum yield of 0.03.

`CC1=[N+]2C(=C(c3c4ccccc4cc4ccccc34)c3ccc(/C=C/C(C)(C)C)n3[B-]2(F)F)C=C1`: for the setting “in ClC(Cl)Cl”, the photoluminescence quantum yield is 0.32.

`c1cc2c3c(c1)OCCCCCCCOc1cccc(c1-c1c4ccccc4c-3c3ccccc13)OCCCCCCCO2` returned a photoluminescence quantum yield (in C1CCCCC1) of 0.98.

As to `CCCCCCCCN1c2ccc(C#Cc3ccc(C(F)(F)F)cc3)cc2Sc2cc(C=O)ccc21`, the photoluminescence quantum yield by setting is: (in C1CCOC1) 0.67; (in CC#N) 0.63; (in CCCCCC) 0.57; (in CO) 0.23; (in CS(C)=O) 0.72; (in Cc1ccccc1) 0.62. The compound also came in with a photoluminescence quantum yield (in ClC(Cl)Cl) of 0.59.

As for `CCN(CC)c1ccc(-c2nc3c(c4c2-c2ccc(C#N)cc2CC4)-c2ccc(C#N)cc2CC3)cc1`, the photoluminescence quantum yield runs as follows: (in C1CCOC1) 0.74; (in CC#N) 0.339; (in CCCCCC) 0.209; (in CCOC(C)=O) 0.565; (in CO) 0.148; (in CS(C)=O) 0.47. In addition, the photoluminescence quantum yield is, setting by setting: (in Cc1ccccc1) 0.427; (in ClCCl) 0.842.

`C[n+]1ccc(/C=C/c2ccc(N(c3ccccc3)c3ccc(/C=C/c4cc[n+](C)cn4)cc3)cc2)nc1` displayed a photoluminescence quantum yield (in OCC(O)CO) of 0.026.

Take `CC1(C)C(/C=C/C2=C(Cl)C(=C/C=C3/N(Cc4ccc(C(=O)O)cc4)c4ccccc4C3(C)C)/CCC2)=[N+](Cc2ccc(C(=O)O)cc2)c2ccccc21`: for the setting “in CCO”, the photoluminescence quantum yield was found to be 0.11.

With `c1ccc2sc(-c3ccc(-c4nnc(-c5ccc(-c6nnc(-c7ccc(-c8cc9ccccc9s8)s7)o6)cc5)o4)s3)cc2c1`, where the note is “in ClC(Cl)Cl”, the photoluminescence quantum yield was found to be 0.61.

For `O=C(c1ccncc1)c1ccc(-n2c3ccccc3c3cc(-n4c5ccccc5c5ccccc54)ccc32)cc1`, the photoluminescence quantum yield reads like this: (in Cc1ccccc1) 0.178; (in c1cc(-c2cccc(-n3c4ccccc4c4ccccc43)c2)cc(-n2c3ccccc3c3ccccc32)c1) 0.72.

`CNC(=O)[C@H](C)NC(=O)c1cccc2c1C#Cc1c(N)cccc1OCCCO2` showed a photoluminescence quantum yield (in CC#N) of 0.25 and a photoluminescence quantum yield (in ClCCl) of 0.44.

Under “in ClCCl”, `CC(C)(C)c1ccc2c(c1)c1cc(C(C)(C)C)ccc1n2-c1ccc(N(c2ccc(-c3ccc(N(c4ccc(-n5c6ccc(C(C)(C)C)cc6c6cc(C(C)(C)C)ccc65)cc4)c4ccc(-n5c6ccc(C(C)(C)C)cc6c6cc(C(C)(C)C)ccc65)cc4)cc3)cc2)c2ccc(-n3c4ccc(C(C)(C)C)cc4c4cc(C(C)(C)C)ccc43)cc2)cc1` registered a photoluminescence quantum yield of 0.55.

For the setting “in CC#N”, `O=c1oc2ccccc2cc1C#Cc1ccccc1` registered a photoluminescence quantum yield of 0.88.

Consider `CCCCCCN1C(=O)c2cccc3c(-c4cc5ccccc5s4)ccc(c23)C1=O`, for which the photoluminescence quantum yield (in ClC(Cl)Cl) was 0.28.

For the compound `N#C/C(=C\c1ccncc1)c1nc(-c2ccccc2)cs1`, the photoluminescence quantum yield came out at 0.263 (in CC#N); 0.6 (in CCO); 0.406 (in CN(C)C=O); 0.124 (in CS(C)=O); 0.346 (in Cc1ccccc1); 0.086 (in ClCCl).

Turning to `c1ccccc1`, the photoluminescence quantum yield (in C1CCCCC1) was 0.14.

For `CC1(C)[C@@H]2CC[C@]1(C)c1nc3cc(-c4cccs4)ccc3nc12`, the photoluminescence quantum yield was 0.06 (in CC#N); 0.35 (in CCCCO); 0.37 (in CCO); 0.02 (in CCOC(C)=O); 0.52 (in CO); 0.01 (in Cc1ccccc1). The photoluminescence quantum yield turned out to be 0.11 (in ClC(Cl)Cl) and 0.05 (in ClCCl).

The values are drawn from the Deep4Chem optical property database.
